Experiments:
[1] = Apparent permeability from apical to basolateral side of human Caco2 cells; assay type: ADME, cell-based; conditions: Caco-2, read-out: permeability
[2] = Apparent permeability from basolateral to apical side of human Caco2 cells; assay type: ADME, cell-based; conditions: Caco-2, read-out: permeability
[3] = tested on: Hepatocyte; assay: Intrinsic clearance in rat hepatocytes assessed per 1 x 10^6 cells; assay type: ADME, cell-based, Liver
[4] = Oral bioavailability in C57 mouse; assay type: ADME, organism-based; conditions: in vivo
[5] = tested on: Liver microsomes; assay: Intrinsic clearance in human liver microsomes assessed per mg of protein; assay type: ADME, Microsome
[6] = tested on: Liver microsomes; assay: Intrinsic clearance in rat liver microsomes assessed per mg of protein; assay type: ADME, Microsome
[7] = Intrinsic clearance in mouse liver microsomes assessed per mg of protein; assay type: ADME, Microsome
[8] = tested on: Hepatocyte; assay: Intrinsic clearance in human hepatocytes assessed per 1 x 10^6 cells; assay type: ADME, cell-based, Liver
[9] = Plasma clearance in C57 mouse; assay type: ADME, organism-based
[10] = Volume of distribution at steady state in C57 mouse; assay type: ADME, organism-based; conditions: in vivo, read-out: Vdss
[11] = Half life in C57 mouse; assay type: ADME, organism-based; conditions: in vivo

Row | SMILES | Papp A→B [1] [×10⁻⁶ cm/s] | Papp B→A [2] [×10⁻⁶ cm/s] | clearance [3] [µL/min/1e6 cells] | bioavailability [4] [%] | also measured
1 | c1ccc(CN2CCC[C@H](Oc3ccc4cnccc4c3)C2)cc1 | 11.6 | 17.6 | 21 | – | –
2 | Nc1nccc2cc(O[C@H]3CCCNC3)ccc12 | – | – | – | > 75 | –
3 | O=c1[nH]ccc2cc(O[C@H]3CCCNC3)ccc12 | 14.3 | 11.2 | < 6 | – | clearance [5]: < 12 µL/min/mg; clearance [6]: 24 µL/min/mg; clearance [7]: 17 µL/min/mg; clearance [8]: 2 µL/min/1e6 cells
4 | Nc1nccc2c(S(=O)(=O)N3CCCNCC3)cccc12 | – | – | – | 57 | clearance [9]: 34 mL/min/kg; Vd [10]: 2.4 L/kg; half-life [11]: 45 min

From ChEMBL document CHEMBL1667835, “Optimisation of 6-substituted isoquinolin-1-amine based ROCK-I inhibitors” (Bioorg Med Chem Lett, 2011)
